Reference: patent US10328130B2, “Modified hyaluronidases and uses in treating hyaluronan-associated diseases and conditions” (Halozyme, Inc., priority 2008, dated 2019)
Like-named read-outs stand apart in the source and are kept apart here.

Assays:
[1] = test system: PC-3M-luc-C6 cells; assay: PC-3M-luc-C6 bone metastasis model: survival and bioluminescent imaging; type: in vivo, mouse; details: for % survival: day 49
Description: Due to the bioluminescence of the PC-3M-luc-C6 cells, in addition to monitoring the survival of the mice, the mice were imaged to visualize the PC-3M-luc-C6 metastases. Briefly, 7-10 week old nu/nu male mice (Charles River Laboratories) were anesthetized and injected with 3×10^6 PC-3M-luc-C6 cells (a bioluminescent human prostate carcinoma cell line) suspended in 50 μL sterile DPBS by intracardial injection on day 0. Mice were injected into the left ventricle of the heart by non-surgical means to increase the potential for metastasis from PC-3M-luc-C6 cells. The intracardiac injection of tumor cells bypasses the lungs and serves as a method to disperse cells into general circulation in order to allow seeding of metastasis in multiple tissues within an animal. A satisfactory injection into the left ventricle was detectable within minutes by bioluminescent imaging (BLI) and was identified by an immediate but transient systemic bioluminescence over the entire animal, as indicated by complete blue signal BLI of mice. An unsuccessful implantation produced a more localized signal generally isolated and sustained over time solely within the thoracic region of the animal. […] Mice with successful intra-cardiac injection of PC-3Mluc-C6 cells on day 0 (n=10−13 mice/Grp) were imaged twice a week for up to four weeks and subsequently followed up for survival till day 49 and beyond that time point.
On day 14, the mice were subjected to one of several treatment regimens. A set of control mice was administered API buffer (10 mM Hepes and 130 mM NaCl, pH 7.0) only on days 14, 16, 18, 21, 23, 25, 28, 30, and 32.
The in vivo bioluminescent signal from the jaw region of mice corresponds to micrometastases in the dental pulp, mandible or cervical lymph nodes. Lower limb in vivo signals corresponded to metastatic lesions identified in the tibia or femur leg bones. The thoracic signals that are observed in vivo are associated with residual tumor cells that had seeded into the heart, lung or the pleural surface of the chest cavity. Mice with images indicating a successful systemic injection on day 0 and showing in vivo evidence of metastasis by day 29 were included in the analysis of the treatment groups.

[2] = test system: PC3 prostate cancer xenograft tumor
Description: Tumor growth was monitored using VisualSonics Imaging Micro-ultrasound system. […] A control group of mice (G2) received 10 mg/kg docetaxel Q7D×2 intravenously on days 0 and 7. Another control group of mice received 30 mg/kg docetaxel Q7D×2 intravenously on days 0 and 7. […] A final control group that received only API buffer also was included in the study (G1). […] The Median Survival Time (MST) (in days) was calculated by median time to 1500 mm^3 tumor volume based on individual animals in each group. The % T/C is calculated by % T/C=(T/C)×100, where T is the median survival time to 1500 mm^3 tumor volume in the treated group and C is the median survival time to 1500 mm^3 tumor volume in the API buffer control group. By National Cancer Institute (NCI) criteria, a product with a % T/C over 125% is considered active. The Increase in Life Span (ILS) is a measure of anti-tumor activity calculated as [(T−C)/C]×100, where (T−C) is the difference in the median day to 1500 mm^3 tumor volume between the treated (T) and control (C) groups.
A control group of mice were intravenously administered 6 mg/kg Doxil® liposomal doxorubicin on days 0, 7 and 14. […] A final control group that received only API buffer also was include in the study.

[3] = PEGylated rHuPH20 10,000 U/mouse and/or Taxotere 10 mg/kg (admixed) IV
[4] = Taxotere 30 mg/kg IV days 14 and 21
[5] = PEGylated rHuPH20 10,000 U/mouse and/or docetaxel 10 mg/kg IV

Question: What does the source list for CC(=O)O[C@@]12CO[C@@H]1C[C@H](O)[C@@]1(C)C(=O)[C@H](O)C3=C(C)[C@@H](OC(=O)[C@H](O)[C@@H](NC(=O)OC(C)(C)C)c4ccccc4)C[C@@](O)([C@@H](OC(=O)c4ccccc4)[C@H]21)C3(C)C [Taxotere ® (docetaxel), docetaxel]?
Answer: No. of animals alive at day 49 [1, 3]: 9; surviving animals at day 29 ([1]; Taxotere 10 mg/kg or PEGylated rHuPH20 10,000 U/mouse alone): 9 out of 12; No. of animals alive at day 49 [1, 4]: 10; mice remaining alive at Day 29 [1, 4]: 10 out of 11; % survival [1, 3]: 75.00%; % survival [1, 4]: 90.91%; Average Survival Time (to 1500 mm^3 tumor volume) [2, 5]: 38.96 ± 7.07; MST (Median Survival Time to 1500 mm^3 tumor volume) [2, 5]: 32.9 days; Tumor volume ([2]; day 4, PEGylated rHuPH20 10,000 U/mouse and/or docetaxel 10 mg/kg IV): 687.27 mm3; Tumor volume ([2]; day 4, docetaxel 30 mg/kg IV): 497.04 mm3; Tumor volume ([2]; day 13, PEGylated rHuPH20 10,000 U/mouse and/or docetaxel 10 mg/kg IV): 869.25 mm3; Tumor volume ([2]; day 13, docetaxel 30 mg/kg IV): 401.12 mm3; Tumor volume ([2]; day 21, PEGylated rHuPH20 10,000 U/mouse and/or docetaxel 10 mg/kg IV): 1011.1 mm3; Tumor volume ([2]; day 21, docetaxel 30 mg/kg IV): 409.02 mm3; Tumor volume ([2]; day 27, PEGylated rHuPH20 10,000 U/mouse and/or docetaxel 10 mg/kg IV): 1260.7 mm3; Tumor volume ([2]; day 27, docetaxel 30 mg/kg IV): 291.65 mm3; Tumor volume ([2]; day 35, PEGylated rHuPH20 10,000 U/mouse and/or docetaxel 10 mg/kg IV): 1441.1 mm3; Tumor volume ([2]; day 35, docetaxel 30 mg/kg IV): 213.73 mm3; Tumor volume ([2]; day 42, PEGylated rHuPH20 10,000 U/mouse and/or docetaxel 10 mg/kg IV): 1552.1 mm3; Tumor volume ([2]; day 42, docetaxel 30 mg/kg IV): 147.05 mm3; Tumor volume ([2]; day 50, docetaxel 30 mg/kg IV): 130.2 mm3; Tumor volume ([2]; day 61, docetaxel 30 mg/kg IV): 343.03 mm3; Tumor volume ([2]; day 73, docetaxel 30 mg/kg IV): 865.5 mm3; Tumor volume ([2]; day −1 (before treatment), PEGylated rHuPH20 10,000 U/mouse and/or docetaxel 10 mg/kg IV): 470.39 mm3; Tumor volume ([2]; day −1 (before treatment), docetaxel 30 mg/kg IV): 471.34 mm3; % ILS ([2]; increase in life span vs API buffer control, PEGylated rHuPH20 10,000 U/mouse and/or docetaxel 10 mg/kg): 59%; % T/C ([2]; median survival time vs API buffer control, PEGylated rHuPH20 10,000 U/mouse and/or docetaxel 10 mg/kg): 157%
